One data set concerns E. coli. Description: MIC against standard strains (agar dilution). As to conditions: Escherichia coli, Mueller-Hinton agar, 10^7 cfu/mℓ, 20 hours at 37°C. It is filed as cell-based. On the procedure:
(§1) Test example 1: Measurement of Minimum Inhibitory Concentration (MIC)
(§2) Specifically, test compounds were diluted by 2-fold dilution method and dispersed in Mueller-Hinton agar medium and then, 2µℓ of test strains were inoculated at a concentration of 10^7 cfu(colony forming unit)/mℓ on the medium and incubated for 20 hours at 37°C.
(In general: In agar dilution, organisms are placed on agar that contains the substance at set levels.)

The next data set relates to P. vulgaris. Description: MIC against standard strains (agar dilution). In kind it is cell-based. As to conditions: Proteus vulgaris, Mueller-Hinton agar, 10^7 cfu/mℓ, 20 hours at 37°C. On the procedure: as §1, §2
Another data set concerns S. pneumoniae. In words: MIC against standard strains (agar dilution). It is filed as cell-based. Conditions: Streptococcus pneumoniae, Mueller-Hinton agar, 10^7 cfu/mℓ, 20 hours at 37°C. Here is the method: as §1, §2
In a further data set the test system is H. influenzae. In words: MIC against standard strains (agar dilution). It is filed as cell-based. As to conditions: Haemophilus influenzae. Here is the method: as §1, §2
Another data set deals with S. aureus. Description: MIC against standard strains (agar dilution). It is filed as cell-based. As to conditions: Staphylococcus aureus, Mueller-Hinton agar, 10^7 cfu/mℓ, 20 hours at 37°C. Here is the method:
as §1, §2

A short description of data set [1]: Pharmacokinetic experiment (blood concentration by HPLC). As to conditions: mice, 20mg/kg; for AUC / half-life: male, mouse, blood. In kind it is in vivo, mice. Here is the method: Test example 2: Pharmacokinetic experiment
Male mice, each of which has a body weight of […] were used in the present pharmacokinetic experiment. Test compounds were formulated into 1% of solution and then, the solution was administered by oral route and by injection with a dose of 20mg/kg, respectively. At the fixed interval of time after administration, blood was gathered from the mice. Concentrations of test compounds in blood were measured by HPLC quantitative analysis and based on the results, pharmacokinetic parameters were calculated.

In brackets after ≈: the same amount, converted by molar mass. Read-outs that look alike come from different tables or passages of the source.

The term AUC denotes the area under the concentration-time curve, a measure of exposure. For orientation: half-life means the time needed for the level to fall by half in the phase considered. Higher therefore signals slow decline.

Turning to `C=CC1=C(C(=O)O)N2C(=O)[C@@H](NC(=O)/C(=N\O)c3csc(N)n3)[C@H]2SC1` [Cefdinir, reference compound], the MIC with E. coli amounted to 0.016 µg/mL (≈ 0.0405 µM); against P. vulgaris, 0.031 µg/mL (≈ 0.0784 µM); against S. pneumoniae, 4 µg/mL (≈ 10.1 µM); in the data set on H. influenzae (H. influenzae, Mueller-Hinton agar, 10^7 cfu/mℓ, 20 hours at 37°C, read-out: MIC) it was 0.25 µg/mL (≈ 0.632 µM); in the data set on S. aureus, 0.031 µg/mL (≈ 0.0784 µM). Also, the AUC in data set [1] (intravenous, Injection) is 50000 ng·h/mL; in data set [1] (Oral administration), 6380 ng·h/mL. In addition, the half-life in data set [1] (intravenous, Injection) came out at 0.35 h; in data set [1] (Oral administration), 1.23 h; in data set [1] (intravenous injection), 0.35 h. In data set [1] (Oral administration), this compound yielded a maximum conc. of 2.9 µg/mL.
Take `CO/N=C(\C(=O)NC1C(=O)N2C(C(=O)O)=C(SCSc3nccc(N)n3)CSC12)c1csc(N)n1` (stereo not shown) [Compound No. 2, 7-[(Z)-2-(2-amino-thiazol-4-yl)-2-methoxyimino-acetylamino]-8-oxo-3-(4-amino-pyrimidin-2-ylsulfanylmethylsulfanyl)-5-t hia-1-aza-bicyclo[4,2,0]oct-2-ene-2-carboxylic acid]: the MIC stood at 0.063 µg/mL (≈ 0.114 µM) in the data set on E. coli; 0.031 µg/mL (≈ 0.0559 µM) against P. vulgaris; 0.25 µg/mL (≈ 0.451 µM) in the data set with S. pneumoniae; 0.008 µg/mL (≈ 0.0144 µM) against H. influenzae (20 h); 0.5 µg/mL (≈ 0.901 µM) with S. aureus.
Take `CO/N=C(\C(=O)NC1C(=O)N2C(C(=O)O)=C(SCSc3ncccn3)CSC12)c1csc(N)n1` (stereo not shown) [compound 1, 7-[(Z)-2-(2-amino-thiazol-4-yl)-2-methoxyimino-acetylamino]-8-oxo-3-(pyrimidin-2-ylsulfanylmethylsulfanyl)-5-thia-1-aza-bicyclo[4,2,0]oct-2-ene-2-carboxylic acid]: the MIC against E. coli was determined as 0.13 µg/mL (≈ 0.241 µM); with P. vulgaris, 0.063 µg/mL (≈ 0.117 µM); against S. pneumoniae, 0.5 µg/mL (≈ 0.927 µM); in the data set on H. influenzae (20 h) it was 0.008 µg/mL (≈ 0.0148 µM); against S. aureus, 0.5 µg/mL (≈ 0.927 µM).
For `CO/N=C(\C(=O)NC1C(=O)N2C(C(=O)O)=C(SCSc3nc(N)cc(N)n3)CSC12)c1csc(N)n1` (stereo not shown) [compound 3, 7-[(Z)-2-(2-amino-thiazol-4-yl)-2-methoxyimino-acetylamino]-3-(4,6-diamino-pyrimidin-2-ylsulfanylmethylsulfanyl)-8-oxo-5-thia-1-aza-bicyclo[4,2,0]oct-2-ene-2-carboxylic acid], the MIC in the data set on E. coli turned out to be 0.063 µg/mL (≈ 0.111 µM); against P. vulgaris, 0.016 µg/mL (≈ 0.0281 µM); with S. pneumoniae, 0.25 µg/mL (≈ 0.439 µM); against H. influenzae (20 h) it was 0.016 µg/mL (≈ 0.0281 µM); in the data set on S. aureus, 0.5 µg/mL (≈ 0.878 µM).
With `CO/N=C(\C(=O)NC1C(=O)N2C(C(=O)O)=C(SCSc3cc(N)nc(N)n3)CSC12)c1csc(N)n1` (stereo not shown) [compound 4, 7-[(Z)-2-(2-amino-thiazol-4-yl)-2-methoxyimino-acetylamino]-3-(2,6-diamino-pyrimidin-4-ylsulfanylmethylsulfanyl)-8-oxo-5-thia-1-aza-bicyclo[4,2,0]oct-2-ene-2-carboxylic acid], the MIC in the data set on E. coli amounted to 0.063 µg/mL (≈ 0.111 µM); against P. vulgaris it was 0.016 µg/mL (≈ 0.0281 µM); in the data set on S. pneumoniae it was 0.13 µg/mL (≈ 0.228 µM); against H. influenzae (20 h) it was 0.008 µg/mL (≈ 0.014 µM); in the data set with S. aureus, 0.25 µg/mL (≈ 0.439 µM).
Consider `Nc1cc(N)nc(SCSC2=C(C(=O)O)N3C(=O)C(NC(=O)/C(=N\O)c4csc(N)n4)C3SC2)n1` (stereo not shown) [compound 5, 7-[(Z)-2-(2-amino-thiazol-4-yl)-2-hydroxyimino-acetylamino]-3-(4,6-diamino-pyrimidin-2-ylsulfanylmethylsulfanyl)-8-oxo-5-thia-1-aza-bicyclo[4,2,0]oct-2-ene-2-carboxylic acid], for which the MIC against E. coli is 0.063 µg/mL (≈ 0.113 µM); in the data set on P. vulgaris, 0.031 µg/mL (≈ 0.0558 µM); in the data set with S. pneumoniae it was 1 µg/mL (≈ 1.8 µM); in the data set on H. influenzae (20 h), 0.25 µg/mL (≈ 0.45 µM); in the data set with S. aureus, 0.13 µg/mL (≈ 0.234 µM).
Consider `Nc1cc(SCSC2=C(C(=O)O)N3C(=O)C(NC(=O)/C(=N\O)c4csc(N)n4)C3SC2)nc(N)n1` (stereo not shown) [compound 6, 7-[(Z)-2-(2-amino-thiazol-4-yl)-2-hydroxyimino-acetylamino]-3-(2,6-diamino-pyrimidin-4-ylsulfanylmethylsulfanyl)-8-oxo-5-thia-1-aza-bicyclo[4,2,0]oct-2-ene-2-carboxylic acid], for which the MIC was found to be 0.031 µg/mL (≈ 0.0558 µM) in the data set with E. coli; 0.031 µg/mL (≈ 0.0558 µM) in the data set with P. vulgaris; 0.5 µg/mL (≈ 0.9 µM) in the data set on S. pneumoniae; 0.5 µg/mL (≈ 0.9 µM) in the data set with H. influenzae (20 h); 0.13 µg/mL (≈ 0.234 µM) with S. aureus.
For the compound `Nc1cc(SCSC2=C(C(=O)O)N3C(=O)C(NC(=O)/C(=N\O)c4nc(N)sc4Cl)C3SC2)nc(N)n1` (stereo not shown) [compound 7, 7-[(Z)-2-(2-amino-5-chloro-thiazol-4-yl)-2-hydroxyimino-acetylamino]-3-(2,6-diamino-pyrimidin-4-ylsulfanylmethylsulfanyl)-8-oxo-5-thia-1-aza-bicyclo[4,2,0]oct-2-ene-2-carboxylic acid], the MIC was determined as 0.25 µg/mL (≈ 0.424 µM) in the data set on E. coli; 0.25 µg/mL (≈ 0.424 µM) with P. vulgaris; 0.25 µg/mL (≈ 0.424 µM) against S. pneumoniae; 0.13 µg/mL (≈ 0.22 µM) in the data set with H. influenzae (20 h); 0.13 µg/mL (≈ 0.22 µM) in the data set on S. aureus. Besides, the AUC in data set [1] (intravenous, Injection) was 107000 ng·h/mL; in data set [1] (Oral administration) it was 59900 ng·h/mL. Besides, the half-life in data set [1] (intravenous, Injection) was 2.32 h; in data set [1] (Oral administration) it was 2.8 h. For the same compound, the maximum conc. in data set [1] (Oral administration) turned out to be 13.8 µg/mL.
On to `CO/N=C(\C(=O)NC1C(=O)N2C(C(=O)O)=C(SCSc3cc(N)nc(N)n3)CSC12)c1nc(N)sc1Cl` (stereo not shown) [compound 8, 7-[(Z)-2-(2-amino-5-chloro-thiazol-4-yl)-2-methoxyimino-acetylamino]-3-(2,6-diamino-pyrimidin-4-ylsulfanylmethylsulfanyl)-8-oxo-5-thia-1-aza-bicyclo[4,2,0]oct-2-ene-2-carboxylic acid], for which the MIC in the data set with E. coli was found to be 0.25 µg/mL (≈ 0.414 µM); against P. vulgaris, 0.25 µg/mL (≈ 0.414 µM); in the data set with S. pneumoniae, 0.13 µg/mL (≈ 0.215 µM); in the data set with H. influenzae (20 h) it was 0.031 µg/mL (≈ 0.0513 µM); against S. aureus it was 0.25 µg/mL (≈ 0.414 µM).
In data set [1] (Oral administration), `CO/N=C(\C(=O)NC1C(=O)N2C(C(=O)O)=C(SCc3cnc(N)nc3N)CSC12)c1csc(N)n1` (stereo not shown) [compound 19, 7-[(Z)-2-(2-amino-1,3-thiazol-4-yl)-2-methoxyimino-acetylamino]-3-(2,4-diaminopyrimidin-5-ylmethylsulfanyl)-8-oxo-5-t hia-1-aza-bicyclo[4,2,0]oct-2-ene-2-carboxylic acid] gave an area under the curve (AUC) of 6320 ng·h/mL, a half-life of 1.15 h and a maximum conc. of 3.2 µg/mL.
With `CO/N=C(\C(=O)NC1C(=O)N2C(C(=O)O)=C(SCc3cc(N)nc(N)n3)CSC12)c1csc(N)n1` (stereo not shown) [compound 20, 7-[(Z)-2-(2-amino-1,3-thiazol-4-yl)-2-methoxyimino-acetylamino]-3-(2,4-diaminopyrimidin-6-ylmethylsulfanyl)-8-oxo-5-t hia-1-aza-bicyclo[4,2,0]oct-2-ene-2-carboxylic acid], the MIC amounted to 0.031 µg/mL (≈ 0.0577 µM) against E. coli; 0.016 µg/mL (≈ 0.0298 µM) with P. vulgaris; 2 µg/mL (≈ 3.72 µM) against S. pneumoniae; 0.031 µg/mL (≈ 0.0577 µM) against H. influenzae (20 h); 2 µg/mL (≈ 3.72 µM) against S. aureus.

(Values after EP1077981B1, “NOVEL CEPHALOSPORIN COMPOUNDS, PROCESSES FOR PREPARATION THEREOF AND ANTIMICROBIAL COMPOSITIONS CONTAINING THE SAME” (LG CHEMICAL LIMITED, priority 1998, dated 1999).)
